Literature values as cited in publication PMC8313041 (Heterocyclic communications, 2015).

Key:
[1] = system: human leukemic T-cell lines

## Nc1ncnc2c1ncn2[C@@H]1O[C@H](CO)[C@@H](F)[C@@H]1F [Compound 2, 9-(2′,3′-dideoxy-2′,3′-difluoro-β-D-arabinofuranosyl)adenine]
HIV-1
  in vitro potency against HIV-1 compared with lodenosine: more potent in vitro against HIV-1 than lodenosine 1

## Nc1nc2c(ncn2[C@@H]2O[C@H](CO)[C@@H](O)[C@@H]2F)c(=O)[nH]1 [Compound 3, 9-(2′-deoxy-2′-fluoro-β-D-arabinofuranosyl)guanine]
[1]
  activity against human leukemic T-cell lines: displays activity against human leukemic T-cell lines

## Nc1ncnc2c1ncn2[C@@H]1O[C@H](CO)C[C@@H]1F [lodenosine, 2′-β-fluoro-2′,3′-dideoxyadenosine]
HIV-1
  in vitro activity against HIV-1: displays in vitro activity against HIV-1
